From patent publication US8420681B2, “Dioxo-imidazolidine derivatives, which inhibit the enzyme SOAT-1, and pharmaceutical and cosmetic compositions containing them” (Galderma Research & Development, priority 2009, dated 2013)

target: T1, enzyme ACAT-1 (Homo sapiens, UniProt P35610); experiment: HepG2 NBD-cholesterol fluorescence test of inhibitory activity towards ACAT-1 (SOAT-1); type: cell-based; conditions: HepG2 cells, NBD-cholesterol 1 μg/ml, incubation 6 hours at 37° C., fluorescence read (490/540 nm)
T1 construct: endogenous in cells; host or cells: HepG2
T1 sequence (P35610 1-550): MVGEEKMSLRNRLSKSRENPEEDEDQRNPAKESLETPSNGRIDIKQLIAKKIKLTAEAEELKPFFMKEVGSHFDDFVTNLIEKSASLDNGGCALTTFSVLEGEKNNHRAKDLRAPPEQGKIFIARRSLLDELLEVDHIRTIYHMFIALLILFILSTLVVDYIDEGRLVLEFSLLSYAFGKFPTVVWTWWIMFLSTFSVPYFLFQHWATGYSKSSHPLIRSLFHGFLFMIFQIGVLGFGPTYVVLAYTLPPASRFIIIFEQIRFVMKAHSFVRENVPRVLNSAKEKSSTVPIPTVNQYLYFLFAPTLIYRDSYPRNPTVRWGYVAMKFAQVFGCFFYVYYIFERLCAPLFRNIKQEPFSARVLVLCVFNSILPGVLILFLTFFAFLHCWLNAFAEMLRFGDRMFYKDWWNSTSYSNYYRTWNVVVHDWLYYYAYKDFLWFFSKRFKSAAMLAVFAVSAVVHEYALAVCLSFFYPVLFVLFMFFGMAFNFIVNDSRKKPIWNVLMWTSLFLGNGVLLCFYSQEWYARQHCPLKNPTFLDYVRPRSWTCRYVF
Description: The compounds (I) according to the invention, and also the pharmaceutically acceptable salts, solvates and/or hydrates thereof, have inhibitory properties on the enzyme SOAT-1. This inhibitory activity on the enzyme SOAT-1 is measured according to a HepG2 primary enzymatic test, as described in Example 23.
The compounds of formula (I) according to the invention were subjected to a test for evaluating their inhibitory activity towards the enzyme ACAT-1, inspired by the following publication: “Identification of ACAT1- and ACAT2-specific inhibitors using a novel, cell based fluorescence assay: individual ACAT uniqueness”, J. Lipid. Res. (2004) vol. 45, pages 378-386.
The principle of this test is based on the use of NBD-cholesterol, a cholesterol analogue whose fluorescence depends on its environment. When this molecule is in a polar environment, it is weakly fluorescent, whereas in a non-polar environment, it is strongly fluorescent. Free NBD-cholesterol becomes inserted in cell membranes and is weakly fluorescent in this polar environment. When NBD-cholesterol is esterified with ACAT, the NBD-cholesterol ester enters non-polar lipid droplets and is then strongly fluorescent.
The method below is applied: HepG2 cells are incubated in the presence of NBD-cholesterol (1 μg/ml) and of the test compound of formula (I) in black 96-well transparent-bottomed plates, at a rate of 30 000 cells per well. After incubation for 6 hours at 37° C. under 5% CO2, the medium is removed by turning upside-down and the cells are washed with twice 100 μl of PBS. After addition of 50 μl of lysis buffer (10 mM NaPO4, 1% Igepal), the plates are shaken for 5 minutes and the fluorescence is read (excitation at 490 nm, emission at 540 nm) on a Fusion machine (Perkin-Elmer).

Row | IC50 [nM] | SMILES
1 | 50 | CCC(NC(=O)CN1C(=O)N(c2ccc(C)cc2)C2(CCCCC2)C1=O)c1ccccc1 (stereo not shown) [Compound 4, 2-(2,4-dioxo-1-p-tolyl-1,3-diaza-spiro[4.5]dec-3-yl)-N-(1-phenyl-propyl)acetamide]
2 | 36 | CC[C@H](NC(=O)CN1C(=O)N(c2ccc(C)cc2)C2(CCCCC2)C1=O)c1ccccc1 [Compound 6, 2-(2,4-dioxo-1-p-tolyl-1,3-diaza-spiro[4.5]dec-3-yl)-N-((S)-1-phenylpropyl)-acetamide]
3 | 31 | CCCC(NC(=O)CN1C(=O)N(c2ccc(C)cc2)C2(CCCCC2)C1=O)c1ccccc1C (stereo not shown) [Compound 8, 2-(2,4-dioxo-1-p-tolyl-1,3-diaza-spiro[4.5]dec-3-yl)-N-(1-o-tolyl-butyl)acetamide]
4 | 100 | Cc1ccc(N2C(=O)N(CC(=O)NC(c3ccccc3C)C(C)C)C(=O)C23CCCCC3)cc1 (stereo not shown) [Compound 9, 2-(2,4-dioxo-1-p-tolyl-1,3-diaza-spiro[4.5]dec-3-yl)-N-(2-methyl-1-o-tolylpropyl)-acetamide]
5 | 60 | CCC(NC(=O)CN1C(=O)N(c2ccc(C)cc2)C2(CCCCC2)C1=O)c1ccc(C)cc1 (stereo not shown) [Compound 13, 2-(2,4-dioxo-1-p-tolyl-1,3-diaza-spiro[4.5]dec-3-yl)-N-(1-p-tolyl-propyl)acetamide]
6 | 9 | CCC(NC(=O)CN1C(=O)N(c2ccc(C)cc2)C2(CCCCC2)C1=O)c1cccc(C(F)(F)F)c1 (stereo not shown) [Compound 17, 2-(2,4-dioxo-1-p-tolyl-1,3-diaza-spiro[4.5]dec-3-yl)-N-[1-(3-trifluoromethyl-phenyl)propyl]-acetamide]
7 | 23 | Cc1ccc(N2C(=O)N(CC(=O)NC(c3ccccc3)C(C)C)C(=O)C23CCCCC3)cc1 (stereo not shown) [Compound 19, 2-(2,4-dioxo-1-p-tolyl-1,3-diaza-spiro[4.5]dec-3-yl)-N-(2-methyl-1-phenylpropyl)-acetamide]
